Experiments:
rumen cellulase activity = assay: In vitro cellulose degradation by rumen bacterial inoculum; assay type: biochemical, cows; details: 0.25% surfactant in reaction mixture; regression on initial 24 hr
Procedure: A bacterial fraction, largely free of protozoa, was prepared for the fermentation assays by using the procedure of Forsberg, “Some Effects of Arsenic on the Rumen Microflora; An In Vitro Study,” Can. J. Microbiol. 24:36 (1978). The digesta inoculum was resuspended and washed twice in an equivalent amount of 0.1 M phosphate buffer pH 6.8 to the rumen fluid. The inoculum provided both, the substrate and the enzyme used for cellulose degradation assay. Incubation periods were 0, 1.5, 3, 6, 12, 24, and 48 hr. Other incubation conditions were similar to those outlined in experiment 1 above. However, cellulose was determined by the method of Updergraff, supra, for the in vivo digestibility trial. The optimal level of Tween 80 obtained was adopted here and followed.

[1] = Griffin et al., 1972; cited from earlier work
[2] = tested on: rumen microbial proteinases; assay: Protease activity of mixed rumen microbial cell enzyme source (casein substrate); assay type: biochemical, cows
Procedure: Two rumen-fistulated, nonlactating cows averaging 623±12.5 kg in weight were fed 5 kg dry matter (DM) of low quality timothy hay twice daily. About 2.5L of rumen fluid was collected through the fistula 4 hrs after the morning feeding at 07:00 hrs. Bulk feed particles were removed by sieving the fluid through a 0.5 mm strain. The fluid was then composited and then stored in a prewarmed (37° C.) thermal container.
A microbial powder was prepared using the acetone-butanol extraction procedure outlined by Mahadevan et al., “Preparation of protease from mixed rumen microorganisms and its use for the in vitro determination of true protein in feedstuffs,” Can. J. Anim. Sci. 67:55 (1987). About 500 g of this powder was prepared and stored at −20° C. Extraction of the proteases was accomplished by stirring 250 g of the powder with 1L of 4° C. cold water (for 1 hr) and then proceeding along Mahadevan's extraction procedure. Only extracts from the filtration with an XM-300 Amicon Filter, (approx. 300 000 molecular weight cutoff—under nitrogen gas), were made, washed twice with distilled water and the retentate freeze dried. This was referred to as the mixed microbial cell enzyme source. It was used in the protein adhesion tests and also in the parallel thiol and protease activity determinations.
Ten grams of the mixed microbial cell enzyme was dissolved in 100 ml warm (37° C.) 0.1 M phosphate buffer, pH 6.8, and used as an enzyme inoculant. The assay matrix consisted of 1 ml enzyme source, 1 ml 2% casein solution, 1 ml 01 M phosphate buffer and 1 ml of either the relevant level of surfactant or an equivalent amount of buffer. Ten levels of the two surfactants, polyoxyethylene sorbitan monoleate (Tween 80) and polyoxyethylene sorbitan monastearate (Tween 60) were tested, viz 0, 0.08, 0.16, 0.24, 0.32, 0.4, 0.8, 1.2, 1.6, and, 2.0% surfactant in the assay mixture.
The protease activity incubations were performed in 50 ml plastic centrifuge tubes, at 37° C. and under a stream of carbon dioxide gas. After 1.5 hr, 1 ml of the assay mixture was removed for the determination of thiols (SH) and disulfides (SS) (Sasago et al., “Determination of sulfhydryl and disulfide groups in milk by p-chloromercuribenzoate-diathizone method,” J. Dairy Sci. 46:1348-1351 (1963)). At the end of 2 hr incubation, the reaction was stopped with 1 ml of 15% TCA (trichloroacetic acid) solution, cooled to 4° C. under an icebath, and centrifuged at 10,000 for 10 min. The free amino acids in the supernatant were assayed using the ninhydrin method (Rosen, “a Modified Colorimetric Analysis For Amino Acids,” Arch. Biochim. Biophys. 67:10 (1957)). The optimal surfactant inclusion level was calculated by direct linear plots on the assumption that the Michaellis-Menten equation applied.

[3] = Accelerated oxidation, Rancimat test of Polysorbate 80 coating on silica; assay type: physicochemical
Procedure: Solid silica particles (LuctaCarrier™ silica, Lucta, S. A., Barcelona, Spain) are coated 50% wt/wt (based of the combined weight of the particles and coating) with a mixture of polyethylene 20 sorbitan monooleate (Polysorbate 80) and an amount of the antioxidants set forth in the tables, below, or no antioxidant as a control. The solid antioxidants (e.g., BHA or BHT) are dissolved in a suitable solvent (e.g., ethyl alcohol) and then mixed with the Polysorbate 80 at the listed concentration levels. The oxidative stability of the coating is then determined using the Rancimat test. Oxidative stability relates to how easily components of oil oxidize which creates off-flavors in the oil, and is measured by instrumental analysis using accelerated oxidation methods. American Oil Chemists' Society Official Method Cd 12-57 for Fat Stability: Active Oxygen Method (re'vd 1989); Rancimat (Laubli, M. W. and Bruttel, P. A., JOACS 63:792-795 (1986)); Joyner, N. T. and J. E. McIntyre, Oil and Soap (1938) 15:184 (modification of the Schaal oven test). The Rancimat method has been developed as the automated version of the AOM method (active oxygen method) for the determination of the induction time of fats and oils. In this method the highly volatile organic acids produced by autoxidation are absorbed in water and used to indicate the induction time. As used in the following tables, the abbreviations have the following meanings: […]

[4] = Shelf life test, sensory panel rancidity score at 40° C.; assay type: physicochemical; details: 1000 ppm
Procedure: The nonionic surfactant polyoxyethylene 20 sorbitan monooleate (Polysorbate 80) is coated in an amount of 50% wt/wt onto silica particles (i.e., in the proportion 50 g. of Polysorbate 80 per 50 g. of silica), either without (control) or with added antioxidant. A shelf life test is performed by measuring, using a sensory panel, the level of rancid odor of samples stored at 40° C., with a rancidity score being assigned to each sample (with a score of 0 for no rancid odors and 10 for highest level of rancid odors. The results are shown in Table 13, below.

[5] = direct linear plots, Michaelis-Menten assumed

## polyoxyethylene sorbitan monastearate [Tween 60]
Rumen cellulase activity
  Initial rate of cellulose degradation: 0.87b (0.28) μg/ml/hr
[1]
  HLB (hydrophile-lipophile balance): 14.9
[2]; control=0
  Initial rate of proteinase activation: 98.04%
[2]; [5]
  Km (additive conc.), proteinase activation: 0.28 ± 0.02a %
  Vmax (maximum proteinase activation): 99.2 ± 2.7a %/unit additive conc.

## Cc1cc(C(C)(C)C)c(O)c(C(C)(C)C)c1 [BHT, butylated hydroxytoluene]
[3]; Table 7, 200 ppm in Polysorbate 80 coating on silica
  Rancimat Stability: 1.75 h
[3]; Table 8, 200 ppm
  Rancimat Stability: 1.85 h
[3]; Table 9, 200 ppm
  Rancimat Stability: 4.45 h
[3]; Table 10, 200 ppm
  Rancimat Stability: 6.15 h

## CCOc1ccc2c(c1)C(C)=CC(C)(C)N2 [EQ, ethoxyquin]
[4]; 1 week, score 0 (no rancid odors) to 10
  Rancidity Score: 1.0
[4]; 2 weeks
  Rancidity Score: 2.0
[4]; 6 weeks
  Rancidity Score: 3.5
[4]; 10 weeks
  Rancidity Score: 5.0

Reference: patent US20040076659A1, “Additive for livestock feeds” (priority 1994, published 2004)
